Source: patent publication US20260224566A1, “Obicetrapib and Ezetimibe Combination Treatment and Fixed Dose Pharmaceutical Compositions” (NewAmsterdam Pharma B.V., priority 2023, published 2026)

Legend:
[1] = tested on: participants currently receiving high-intensity statin therapy; test: ROSE2 Phase 2b clinical trial: safety and tolerability (adverse events, disposition); assay type: in vivo, human
Method: The safety and tolerability profile of obicetrapib 10 mg, both in combination with ezetimibe 10 mg and as monotherapy, will be assessed by clinical laboratory assessments (chemistry and hematology), vital signs, physical examinations, and the incidence of AEs.
An AE can therefore be any unfavorable and/or unintended sign (including an abnormal laboratory finding), symptom, or disease temporally associated with the use of an investigational medicinal product, whether or not related to the investigational medicinal product. All AEs, including observed or volunteered problems, complaints, or symptoms, are to be recorded on the appropriate eCRF.
AEs, which include clinical laboratory assessment variables, will be monitored and documented from the time of first dose of study treatment until completion of Visit 5. Participants should be instructed to report any AE that they experience to the Investigator, whether or not they think the event is due to study drug. Beginning at the date of the first dose of study treatment, Investigators should make an assessment for AEs at each visit and record the event on the appropriate AE eCRF.
The Investigator will assess the severity (intensity) of each AE as mild, moderate, or severe, and will also categorize each AE as to its potential relationship to study drug using the categories of yes or no.
An AE or adverse reaction is considered serious if, in the view of either the Investigator or Sponsor, it results in any of the following outcomes: • Death; • A life-threatening AE; Note: An AE or adverse reaction is considered “life-threatening” if, in view of either the Investigator or Sponsor, its occurrence places the participant at immediate risk of death. […] However, unexpected complications and/or prolongation of hospitalization that occur during elective surgery should be recorded as AEs and assessed for seriousness. Admission to the hospital for social or situational reasons (ie, no place to stay, live too far away to come for hospital visits, respite care) will not be considered inpatient hospitalizations. • A persistent or significant disability/incapacity or substantial disruption of the ability to conduct normal life functions; • A congenital anomaly/birth defect; or • An important medical event.
The Safety Population will include all participants who receive at least 1 dose of any study drug. Treatment classification will be based on the actual treatment received. The Safety Population will be the primary population used for the safety analyses.

CETP [2] = target: T1, CETP (Homo sapiens, UniProt P11597); test: Example 12: CETP activity and mass in ApoE*3-Leiden.CETP mice; assay type: in vivo, mouse
T1 construct: from tissue; host or cells: female ApoE*3-Leiden.CETP transgenic mice dosed in vivo
T1 sequence (P11597 18-493): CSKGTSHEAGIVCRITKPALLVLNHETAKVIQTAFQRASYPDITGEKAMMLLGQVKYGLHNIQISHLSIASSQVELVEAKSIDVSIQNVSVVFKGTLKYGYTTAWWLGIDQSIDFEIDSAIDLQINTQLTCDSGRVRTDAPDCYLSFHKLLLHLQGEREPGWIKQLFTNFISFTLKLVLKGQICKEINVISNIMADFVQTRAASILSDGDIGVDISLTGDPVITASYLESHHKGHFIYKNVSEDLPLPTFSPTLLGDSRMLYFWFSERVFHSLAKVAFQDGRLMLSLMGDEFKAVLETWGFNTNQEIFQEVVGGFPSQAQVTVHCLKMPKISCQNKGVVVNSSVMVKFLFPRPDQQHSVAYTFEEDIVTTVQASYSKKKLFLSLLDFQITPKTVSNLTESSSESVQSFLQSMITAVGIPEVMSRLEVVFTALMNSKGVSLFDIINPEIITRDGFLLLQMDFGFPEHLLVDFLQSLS
Method: To further elucidate the effects of the combination treatment, further studies were carried out using a standard human CETP transgenic knock-in mouse. As can be inferred from the experimental results reported herein, Obicetrapib alone and the combination with ezetimibe reduce non-HDL-C levels by increased VLDL lipolysis, increased VLDL clearance and elevated LDL receptor levels accompanied by an enhanced fecal bile acid and neutral sterol excretion.
(§1) The experimental protocol is illustrated in FIG. 71, with time (t) measured in weeks. Female ApoE*3-Leiden.CETP transgenic mice were fed a Western diet with 0.05% w/w cholesterol (equivalent to daily human intake) with (i) no drug (control), or the same diet containing (ii) obicetrapib alone (2 mg/kg/day), (iii) ezetimibe alone (1 mg/kg/day) or (iv) the combination of obicetrapib and ezetimibe. In the experiment, the effects of the treatments on, amongst other things, plasma blood lipids and fecal bile acids and sterols were determined.

[3] = tested on: ApoE*3-Leiden.CETP transgenic mice; test: Example 13: plasma cholesterol and atherosclerosis development in aortic root of ApoE*3-Leiden.CETP mice; assay type: in vivo, mouse
Method: The current study was carried out to evaluate the effect of obicetrapib monotherapy and a combination of obicetrapib+ezetimibe on atherosclerosis development in a translational mouse model for hyperlipidemia and atherosclerosis.
as §1, with “82,” for “71,”, “(on average 0.6” for “(1”, “ezetimibe.” for “ezetimibe. In the experiment, the effects of the treatments on, amongst other things, plasma blood lipids and fecal bile acids and sterols were determined.”

CETP [4] = target: T1, CETP; test: Example 13: CETP activity and mass in ApoE*3-Leiden.CETP mice; assay type: in vivo, mouse
Method: as §1, with “82,” for “71,”, “(on average 0.6” for “(1”, “ezetimibe.” for “ezetimibe. In the experiment, the effects of the treatments on, amongst other things, plasma blood lipids and fecal bile acids and sterols were determined.”

[5] = tested on: patients with mild dyslipidemia; settings: cited from earlier work
[6] = tested on: critical physiological systems; settings: rats, doses up to 300 mg/kg; cited from earlier work
[7] = All Randomized Participants, obicetrapib 10 mg (N = 39), obicetrapib 10 mg + ezetimibe 10 mg (N = 40)
[8] = Safety Population, 10 mg each drug
[9] = Safety Population, 10 mg each drug, last line so labelled (r41)
[10] = aortic root, 28 weeks of treatment
[11] = obicetrapib 2 mg/kg/day, ezetimibe on average 0.6 mg/kg/day in Western diet

**Q.** What does the source list for CCOC(=O)N1c2ccc(C(F)(F)F)cc2[C@@H](N(Cc2cc(C(F)(F)F)cc(C(F)(F)F)c2)c2ncc(OCCCC(=O)O)cn2)C[C@H]1CC [obicetrapib, {4-[(2-{[3,5-bis(trifluoromethyl)benzyl] [(2R,4S)-1-(ethoxycarbonyl)-2-ethyl-6-(trifluoromethyl)-1,2,3,4-tetrahydroquinolin-4-yl]amino}pyrimidin-5-yl)oxy]butanoic acid}]?
**A.** Completed the study (with PK), (%) [1, 7]: (94.9) %; Completed treatment, (%) [1, 7]: (92.3) %; Discontinued study early, (%) [1, 7]: (5.1) %; Discontinued treatment, (%) [1, 7]: (7.7) %; Primary reason for early study discontinuation: LOST TO FOLLOW-UP, (%) [1, 7]: (2.6) %; Primary reason for early study discontinuation: OTHER, (%) [1, 7]: (0.0) %; Primary reason for early study discontinuation: WITHDRAWAL BY SUBJECT, (%) [1, 7]: (0.0) %; Primary reason for treatment discontinuation: NON-COMPLIANCE WITH STUDY DRUG, (%) [1, 7]: (2.6) %; Primary reason for treatment discontinuation: OTHER, (%) [1, 7]: (0.0) %; Primary reason for treatment discontinuation: WITHDRAWAL BY SUBJECT, (%) [1, 7]: (0.0) %; Any TEAEs by maximum severity: Mild, e [1, 8]: 20; Any TEAEs by maximum severity: Moderate, (%) [1, 8]: (7.7) %; Any TEAEs leading to death, (%) [1, 8]: (0.0) %; Any TEAEs leading to death, e [1, 8]: 0; Any serious TEAEs (TESAEs), (%) [1, 8]: (5.1) %; Any serious TEAEs (TESAEs), e [1, 8]: 2; Any study drug-related TEAEs by maximum severity: Mild, e [1, 8]: 4; Any study drug-related TEAEs by maximum severity: Moderate, (%) [1, 8]: (5.1) %; Any study drug-related TEAEs by maximum severity: Severe, (%) [1, 8]: (5.1) %; Any study drug-related TEAEs leading to discontinuation of study drug, (%) [1, 8]: (5.1) %; Any study drug-related TEAEs, (%) [1, 8]: (2.6) %; Any study drug-related TESAEs, (%) [1, 8]: (2.6) %; Any study drug-related TESAEs, e [1, 8]: 1; Any treatment-emergent AEs (TEAEs), e [1, 8]: 20; Any TEAEs leading to discontinuation of study drug, (%) ([1]; Safety Population, 10 mg each drug, first line so labelled (r25)): (0.0) %; Any TEAEs leading to discontinuation of study drug, (%) [1, 9]: (0.0) %; Any TEAEs leading to discontinuation of study drug, e [1, 9]: 0; cetp mass (CETP [2]; data not shown): does not affect; CETP activity, change (CETP [2]; obicetrapib 2 mg/kg/day, ezetimibe 1 mg/kg/day in Western diet): −99%; HDL-cholesterol ([3]; FIG. 84B): increases; percentage of unaffected segments, increase [3, 10]: +347%; severe lesions (types IV-V), change [3, 10]: −82%; total atherosclerotic lesion size, change ([3]; aortic root, 28 weeks of treatment, versus control): −90%; non-HDL-C levels, change [3, 11]: −53%; total plasma cholesterol levels, change [3, 11]: −31%; lesion number ([3]; versus control animals, FIG. 90B): statistically significant reductions; cetp mass (CETP [4]; FIG. 87B): without statistically significant changes; CETP activity, change (CETP [4]; [11]): −98%; HDL-C efflux capacity ([5]; TA-8995-03, 10 mg daily dose): significant increase; additional reduction in LDL-C on top of atorvastatin 20 mg ([5]; TA-8995-03, obicetrapib 10 mg): 50.3%; adverse effect on critical physiological systems [6]: no adverse effect
